From patent US11000056B2, “Bioactive serum fraction from achachairu (Garcinia humilis) which is free of benzophenone and proteins” (ISP Investments LLC, priority 2015, dated 2021)

Experiments:
[1] = test system: endocrine (androgenic/estrogenic) activity; details: cited from earlier work
[2] = laboratory animals; cited from earlier work
[3] = oral and dermal routes; cited from earlier work
IL-18 = assay: IL18/Baseline, skin sensitization potential in HEK; type: cell-based, human; details: HEK cultures, positive control
Description: It is possible for a test article to not be cytotoxic, and yet be unsafe due to provoking an allergic reaction upon skin contact. Typically, initial exposure to an allergen sensitizes the immune system, and following exposures cause an allergic response. […] We therefore evaluated IL-18 production in HEK treated with test articles to determine their sensitization potential.
Normal human adult epidermal keratinocytes (HEK) were cultured as described in Example 6 above. […] The cell lysates were collected, and IL-18 was quantified using Human IL-18 ELISA Kit (Catalog #7620, produced by MBL International Co., Woburn, Mass., USA). […] Fold changes of IL-18 levels between test articles and respective vehicle controls were calculated and compared to pPD (positive control). […]

| Structure (SMILES) | Anti-estrogenic activity (in words) [1] | Anti-androgenic activity (in words) ([1]; receptor binding assay) | Estrogenic activity (in words) ([1]; receptor binding assay) | Hormonal activity (in words) [2] | Absorption (in words) [3] | IL-18 induction compared to vehicle control (in words) (IL-18) |
| --- | --- | --- | --- | --- | --- | --- |
| COc1ccc(C(=O)c2ccccc2)c(O)c1 [BP-3, Benzophenone-3] | anti-estrogenic activity | strong anti-androgenic | weak estrogenic | weak hormonal activity | rapidly absorbed via oral and dermal routes |  |
| Nc1ccc(N)cc1 [benchmark sensitizer, para-phenylenediamine] |  |  |  |  |  | significantly induced IL-18 |
